Columns and labels:
human OCT2 = biological target: T1, human OCT2 (Homo sapiens, UniProt O15244); experiment: Inhibition of OCT2-mediated metformin uptake in stably transfected HEK cells; type: cell-based; conditions: for IC50: 5 µM [14C]metformin uptake, 5 sec, HEK-OCT2, means ± SE of 3 experiments
T1 construct: OCT2: NP_003049.2; expressed in transfected cells; host or cells: HEK293 (ATCC), stably transfected with pcDNA3.1(+)-SLC22A2
T1 sequence (O15244 1-555): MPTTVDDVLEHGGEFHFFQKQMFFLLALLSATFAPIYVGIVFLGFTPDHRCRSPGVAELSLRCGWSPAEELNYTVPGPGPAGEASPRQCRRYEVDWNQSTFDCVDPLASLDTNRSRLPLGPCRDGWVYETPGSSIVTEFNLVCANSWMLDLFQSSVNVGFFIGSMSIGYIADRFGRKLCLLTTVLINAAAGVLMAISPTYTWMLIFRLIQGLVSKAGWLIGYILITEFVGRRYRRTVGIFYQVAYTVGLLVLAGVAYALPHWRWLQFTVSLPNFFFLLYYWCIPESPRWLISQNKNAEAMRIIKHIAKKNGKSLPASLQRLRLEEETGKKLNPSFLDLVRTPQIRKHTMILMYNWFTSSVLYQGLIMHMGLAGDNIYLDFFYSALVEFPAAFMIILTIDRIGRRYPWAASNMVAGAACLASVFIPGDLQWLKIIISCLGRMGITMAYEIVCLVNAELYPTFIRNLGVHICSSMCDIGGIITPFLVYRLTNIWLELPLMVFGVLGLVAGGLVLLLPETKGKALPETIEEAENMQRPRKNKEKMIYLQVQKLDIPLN
Protocol: (§1) SLC22A1 cDNA and SLC22A2 cDNA had been PCR-amplified from human liver and kidney, respectively, as reported elsewhere and cDNAs were provided by the German Cancer Research Center; the study and the use of the tissue were approved by the institutional review board of the German Cancer Center, Heidelberg, Germany. Since the data were analyzed anonymously, and tissues were left-over samples from diagnostic procedures, written informed consent had not been required and obtained. IRB specifically waived the need for consent due to the fact the human tissue material used was fully anonymized. SLC22A3 cDNA was amplified using SLC22A3-TrueClone (Origene, Rockville, MD, USA) as the template. SLC22A1 cDNA was cloned into the expression vector pcDNA3.1/Hygro(-) (Invitrogen, Darmstadt, Germany), SLC22A2 and SLC22A3 cDNA into pcDNA3.1(+) (Invitrogen). […] HEK cells were grown in DMEM (Sigma) supplemented with 10% fetal bovine serum (Sigma), 100 U⋅ml^−1 penicillin, and 100 µg⋅ml^−1 streptomycin (Lonza, Basel, Switzerland) at 37°C and 5% CO2. HEK cells were transfected with Metafectene Pro (Biontex, München, Germany). Selection of clones stably expressing OCT1 was carried out with 0.5 mg⋅ml^−1 hygromycin as described. Similarly, clones stably expressing OCT2 or OCT3 were selected with 800 µg⋅ml^−1 G418. HEK cells stably transfected with the empty pcDNA3.1(+) vector served as controls (HEK-Co). Cells were incubated with 5 mM butyrate 24 h before use to increase protein levels of recombinant transporters.
(§2) HEK cells (400000 cells/well) were seeded into 24-well cell culture plates (Greiner Bio-One, Frickenhausen, Germany) and grown for 48 h. Cell adherence was improved by coating plates with poly-L-lysine (Biochrom AG, Berlin, Germany) prior to cell plating. All uptake studies were carried out at 37°C as described. […] Uptake was stopped at indicated time points by removing the uptake buffer and immediately washing the cells 3 times with ice-cold uptake buffer. Cells were lysed with 0.2% SDS and intracellular radioactivity was determined by liquid scintillation counting (Hidex 300SL TDCR liquid scintillation counter, Turku, Finland).
(§3) OCT-specific metformin uptake was obtained by subtracting metformin uptake in the presence of 2 mM unlabeled 1-methyl-4-phenylpyridinium (MPP) from that in its absence. […] OCT-specific metformin uptake in the presence of a PPI was then calculated as percentage of that in the absence of the respective PPI (100% uninhibited). For each PPI concentration, 3 individual experiments each with 3 parallel measurements were performed. Apparent IC50 values for inhibition of metformin uptake by PPIs were calculated for each individual experiment by fitting the values to the Hill equation using GraphPad Prism 4 (GraphPad Software Inc., La Jolla, CA, USA). Values in Table 1 are given as the means ± SE of the 3 individual experiments.

human OCT1 = biological target: T2, human OCT1 (Homo sapiens, UniProt O15245); experiment: Inhibition of OCT1-mediated metformin uptake in stably transfected HEK cells; type: cell-based; conditions: for IC50: 5 µM [14C]metformin uptake, 5 min, HEK-OCT1, means ± SE of 3 experiments
T2 sequence (O15245 1-554): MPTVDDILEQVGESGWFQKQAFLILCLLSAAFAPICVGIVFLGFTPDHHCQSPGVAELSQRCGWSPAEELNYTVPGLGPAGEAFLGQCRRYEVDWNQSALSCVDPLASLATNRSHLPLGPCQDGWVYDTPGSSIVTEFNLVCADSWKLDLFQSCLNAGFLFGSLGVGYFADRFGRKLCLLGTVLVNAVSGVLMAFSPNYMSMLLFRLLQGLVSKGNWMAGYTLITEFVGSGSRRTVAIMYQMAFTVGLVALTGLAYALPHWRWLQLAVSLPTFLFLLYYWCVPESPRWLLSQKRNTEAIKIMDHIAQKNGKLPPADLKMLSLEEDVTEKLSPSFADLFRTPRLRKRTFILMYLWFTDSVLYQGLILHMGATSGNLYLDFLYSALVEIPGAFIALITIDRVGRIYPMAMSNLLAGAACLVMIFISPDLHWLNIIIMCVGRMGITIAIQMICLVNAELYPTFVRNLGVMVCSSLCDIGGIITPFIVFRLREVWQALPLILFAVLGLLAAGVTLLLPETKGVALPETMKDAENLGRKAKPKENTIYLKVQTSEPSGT
Protocol: as §1, §2, §3

[1] = 5 µM metformin, 2 mM unlabeled MPP

Row | Structure (SMILES) | IC50 (human OCT2) [µM] | IC50 (human OCT1) [µM] | Metformin uptake by HEK-OCT2 in the presence of MPP (human OCT2; [1]) | Metformin uptake by HEK-OCT1 in the presence of MPP (human OCT1; [1]) | OCT1-mediated metformin uptake at low PPI concentrations (human OCT1; low concentrations of PPI, Figure 3)
1 | Cc1c(OCC(F)(F)F)ccnc1C[S+]([O-])c1nc2ccccc2[nH]1 (stereo not shown) [Lansoprazole] | 9.5 ± 3.8 | 35.8 ± 5.8 | – | – | –
2 | C[n+]1ccc(-c2ccccc2)cc1 [MPP, 1-methyl-4-phenylpyridinium] | – | – | almost completely absent | almost completely absent | –
3 | COc1ccc2[nH]c([S+]([O-])Cc3ncc(C)c(OC)c3C)nc2c1 (stereo not shown) [Omeprazole] | 6.7 ± 2.1 | 15.7 ± 3.8 | – | – | –
4 | COc1ccnc(C[S+]([O-])c2nc3ccc(OC(F)F)cc3[nH]2)c1OC (stereo not shown) [Pantoprazole] | 2.8 ± 0.9 | 30.8 ± 8.8 | – | – | –
5 | COCCCOc1ccnc(C[S+]([O-])c2nc3ccccc3[nH]2)c1C (stereo not shown) [Rabeprazole] | 5.7 ± 0.5 | 3 ± 1.7 | – | – | activated
6 | COc1ccc2[nH]c([S+]([O-])Cc3ncc(C)c(OC)c3C)nc2n1 (stereo not shown) [Tenatoprazole] | 20.3 ± 7.2 | 23.3 ± 7.1 | – | – | –
